Results: the supplement of paper PMC10307832

compound: CC(C)(C)c1nc(-c2cccc(NS(=O)(=O)c3c(F)cccc3F)c2F)c(-c2ccnc(N)n2)s1 [Dabrafenib] + N=C(N)NC(=N)NCCc1ccccc1 [Phenformin] (partner 250 µM); test: relative viability (nuclei count vs DMSO), 5 days (fraction); higher = more cells survive; conditions: first compound 0.003 µM
Summary of the method: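 One day after seeding in 1536-well plates, lung cancer cell lines were dosed by pin tool. Dosing was either single-drug or a fixed anchor-drug dose plus five library-drug doses (not always all listed) in √10 steps. After 5 days, nuclei were stained in one fix-and-stain step and counted on 4× images, and relative viability is the nuclei count of treated wells over that of vehicle wells, given as the median of duplicate plates.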

Row | Cell Line | relative viability
1 | HCC-827 | 0.31
2 | COR-L 105 | 0.497
3 | NCI-H2126 | 0.521
4 | NCI-H647 | 0.129
5 | LOU-NH91 | 0.417
6 | NCI-H1651 | 0.35
7 | NCI-H1755 | 0.565
8 | HOP-62 | 0.518
9 | NCI-H1650 | 0.347
10 | ChaGo-K-1 | 0.315
11 | HCC-15 | 0.461
12 | LU99A | 0.907
13 | EKVX | 0.147
14 | COR-L23 | 0.466
15 | NCI-H1563 | 0.622

same assay, conditions: first compound 0.009487 µM

Row | Cell Line | relative viability
16 | ABC-1 | 0.233
17 | CAL-12T | 0.51
18 | NCI-H1944 | 0.199
19 | NCI-H2085 | 0.809
20 | NCI-H2228 | 0.326
21 | NCI-H441 | 1.04
22 | NCI-H522 | 0.654
23 | EMC-BAC-2 | 0.563
24 | NCI-H2170 | 0.367
25 | UMC-11 | 0.331
26 | NCI-H650 | 0.475
27 | LCLC-103H | 0.35
28 | NCI-H596 | 1.11
29 | HCC-827 | 0.447
30 | COR-L 105 | 0.507
31 | NCI-H2126 | 0.551
32 | A549 | 0.18
33 | NCI-H647 | 0.521

Row | Cell Line | relative viability
34 | LOU-NH91 | 0.808
35 | HCC-78 | 0.866
36 | HCC-44 | 0.173
37 | NCI-H1651 | 0.352
38 | NCI-H1755 | 0.627
39 | HOP-62 | 0.604
40 | PC-14 | 0.493
41 | NCI-H1650 | 0.424
42 | ChaGo-K-1 | 0.446
43 | A-427 | 0.292
44 | NCI-H1355 | 0.487
45 | NCI-H1792 | 0.485
46 | HCC-15 | 0.461
47 | LU99A | 0.883
48 | EKVX | 0.227
49 | COR-L23 | 0.425
50 | NCI-H1563 | 0.667
51 | NCI-H1623 | 0.611

same assay, conditions: first compound 0.03 µM

Row | Cell Line | relative viability
52 | ABC-1 | 0.254
53 | CAL-12T | 0.601
54 | NCI-H1944 | 0.188
55 | NCI-H2085 | 0.592
56 | NCI-H2228 | 0.289
57 | NCI-H441 | 1
58 | NCI-H522 | 0.616
59 | EMC-BAC-2 | 0.364
60 | NCI-H2170 | 0.385
61 | UMC-11 | 0.332
62 | NCI-H650 | 0.393
63 | LCLC-103H | 0.328
64 | NCI-H596 | 0.65
65 | HCC-827 | 0.354
66 | COR-L 105 | 0.417
67 | NCI-H2126 | 0.557
68 | A549 | 0.191
69 | NCI-H647 | 0.418

Row | Cell Line | relative viability
70 | LOU-NH91 | 0.645
71 | HCC-78 | 0.704
72 | HCC-44 | 0.183
73 | NCI-H1651 | 0.293
74 | NCI-H1755 | 0.544
75 | HOP-62 | 0.627
76 | PC-14 | 0.623
77 | NCI-H1650 | 0.457
78 | ChaGo-K-1 | 0.472
79 | A-427 | 0.273
80 | NCI-H1355 | 0.414
81 | NCI-H1792 | 0.198
82 | HCC-15 | 0.528
83 | LU99A | 0.887
84 | EKVX | 0.187
85 | COR-L23 | 0.431
86 | NCI-H1563 | 0.653
87 | NCI-H1623 | 0.572

same assay, conditions: first compound 0.09487 µM

Row | Cell Line | relative viability
88 | ABC-1 | 0.232
89 | CAL-12T | 0.572
90 | NCI-H1944 | 0.222
91 | NCI-H2085 | 0.596
92 | NCI-H2228 | 0.37
93 | NCI-H441 | 0.548
94 | NCI-H522 | 0.628
95 | EMC-BAC-2 | 0.418
96 | NCI-H2170 | 0.384
97 | UMC-11 | 0.329
98 | NCI-H650 | 0.262
99 | LCLC-103H | 0.345
100 | NCI-H596 | 0.687
101 | COR-L 105 | 0.492
102 | NCI-H2126 | 0.601
103 | A549 | 0.173
104 | NCI-H647 | 0.486
105 | LOU-NH91 | 0.707

Row | Cell Line | relative viability
106 | HCC-78 | 0.614
107 | HCC-44 | 0.227
108 | NCI-H1651 | 0.353
109 | NCI-H1755 | 0.591
110 | HOP-62 | 0.491
111 | PC-14 | 0.583
112 | NCI-H1650 | 0.495
113 | ChaGo-K-1 | 0.418
114 | A-427 | 0.276
115 | NCI-H1355 | 0.4
116 | NCI-H1792 | 0.34
117 | HCC-15 | 0.401
118 | LU99A | 0.862
119 | EKVX | 0.196
120 | COR-L23 | 0.396
121 | NCI-H1563 | 0.752
122 | NCI-H1623 | 0.602

same assay, conditions: first compound 0.3 µM

Row | Cell Line | relative viability
123 | ABC-1 | 0.209
124 | CAL-12T | 0.677
125 | NCI-H1944 | 0.208
126 | NCI-H2085 | 0.714
127 | NCI-H2228 | 0.258
128 | NCI-H441 | 0.563
129 | NCI-H522 | 0.634
130 | EMC-BAC-2 | 0.548
131 | NCI-H2170 | 0.421
132 | UMC-11 | 0.279
133 | NCI-H650 | 0.35
134 | LCLC-103H | 0.331
135 | NCI-H596 | 0.748
136 | HCC-827 | 0.385
137 | COR-L 105 | 0.547
138 | NCI-H2126 | 0.565
139 | A549 | 0.151
140 | NCI-H647 | 0.458

Row | Cell Line | relative viability
141 | LOU-NH91 | 0.92
142 | HCC-78 | 0.667
143 | HCC-44 | 0.235
144 | NCI-H1651 | 0.347
145 | NCI-H1755 | 0.629
146 | HOP-62 | 0.495
147 | PC-14 | 0.83
148 | NCI-H1650 | 0.631
149 | ChaGo-K-1 | 0.556
150 | A-427 | 0.378
151 | NCI-H1355 | 0.459
152 | NCI-H1792 | 0.202
153 | HCC-15 | 0.382
154 | LU99A | 0.671
155 | EKVX | 0.236
156 | COR-L23 | 0.431
157 | NCI-H1563 | 0.748
158 | NCI-H1623 | 0.682
